{"source": "patent US20130164384A1", "about": "“METHODS OF TREATING BOWEL DISEASES BY ADMINISTERING A BOWEL CLEANSER AND AN ANTIBIOTIC” (Salix Pharmaceuticals, Ltd., priority 2008, published 2013)", "system": "subjects with dIBS", "test": "Study of three rifaximin doses in subjects with dIBS: adequate relief of IBS symptoms and bloating", "format": "in vivo, human", "settings": "for Treatment effect (Bloating) / Treatment effect (IBS Sx): matches RFX 550 2 w minus PBO success rate; for Adequate Relief of Bloating: Failure / Adequate Relief of Bloating: Success / Adequate Relief of IBS Symptoms: Failure / Adequate Relief of IBS Symptoms: Success: end of treatment phase", "procedure": "This example relates to a study of three rifaximin doses in subjects with dIBS. Subjects were randomized to receive daily BID doses of rifaximin 275 mg, 550 mg, or 1100 mg for 14 days. A fifth group of subjects received rifaximin 550 mg BID for a period of 28 days. Subjects were questioned on the relief of overall IBS symptoms and bloating. […] The analyses defined success as a “yes” response to questions regarding adequate relief of SGA or IBS-B in at least 2 out of the final 3 weeks of the double-blind treatment period.\nBaseline severity was determined using 7-point Lickert scales during screening for Abdominal Pain/Discomfort and Bloating, and the number, type (normal, hard, loose) and urgency of bowel movements.\nDuration of effect was assessed in a 12 week follow-up period. Subjects that responded in the 4 week double-blind treatment period were followed for an additional 3 months. Fifty-three (53) subjects from the 550 mg 2 w and 59 subjects from the placebo-treated groups participated in this study phase.\nSubjects recorded the following information on dIBS symptoms daily throughout the duration of the study: • Number of normal stools/day; • Number of hard and lumpy stools/day; • Number of loose or watery stools/day; • Number of loose or watery stools/day with the symptom of urgency; • How bothersome is abdominal pain and discomfort? [7-point response scale: 0 (not at all) to 6 (a very great deal)]; • How bothersome is bloating? [(7-point response scale: 0 (not at all) to 6 (a very great deal)].\nWeekly summary variables were computed by averaging the recorded values over all pre-treatment days or over the seven days preceding the time point of interest for post-treatment assessments. For example, baseline included Days −10 to 0, Week 1 included Days 1 to 7, Week 2 included Days 8 to 14, and so forth through Week 16. Changes from baseline variables were computed for each weekly summary score.", "key": {"[1]": {"settings": "550 mg BID for 2 weeks, success = yes in at least 2 of final 3 weeks"}, "[2]": {"settings": "GI Cleanser Prior to Rifaximin Administration: N"}, "[3]": {"settings": "GI Cleanser Prior to Rifaximin Administration: Y"}, "[4]": {"settings": "RFX 275 2 w (275 mg BID 14 days), Had a Screening Colonoscopy: No"}, "[5]": {"settings": "RFX 275 2 w (275 mg BID 14 days), Had a Screening Colonoscopy: Yes"}, "[6]": {"settings": "RFX 275 2 w (275 mg BID 14 days), Screening Colonoscopy <=26 Days"}, "[7]": {"settings": "RFX 275 2 w (275 mg BID 14 days), Screening Colonoscopy >26 Days"}, "[8]": {"settings": "RFX 275 2 w (275 mg BID 14 days), had screening colonoscopy, Average Abdominal Pain Discomfort Score at Baseline <=4"}, "[9]": {"settings": "RFX 275 2 w (275 mg BID 14 days), had screening colonoscopy, Average Abdominal Pain Discomfort Score at Baseline >4"}, "[10]": {"settings": "RFX 275 2 w (275 mg BID 14 days), had screening colonoscopy, Average Bloating Discomfort Score at Baseline <=4"}, "[11]": {"settings": "RFX 275 2 w (275 mg BID 14 days), had screening colonoscopy, Average Bloating Discomfort Score at Baseline >4"}, "[12]": {"settings": "RFX 550 2 w (550 mg BID 14 days), Had a Screening Colonoscopy: No"}, "[13]": {"settings": "RFX 550 2 w (550 mg BID 14 days), Had a Screening Colonoscopy: Yes"}, "[14]": {"settings": "RFX 550 2 w (550 mg BID 14 days), Screening Colonoscopy <=26 Days"}, "[15]": {"settings": "RFX 550 2 w (550 mg BID 14 days), Screening Colonoscopy >26 Days"}, "[16]": {"settings": "RFX 550 2 w (550 mg BID 14 days), had screening colonoscopy, Average Abdominal Pain Discomfort Score at Baseline <=4"}, "[17]": {"settings": "RFX 550 2 w (550 mg BID 14 days), had screening colonoscopy, Average Abdominal Pain Discomfort Score at Baseline >4"}, "[18]": {"settings": "RFX 550 2 w (550 mg BID 14 days), had screening colonoscopy, Average Bloating Discomfort Score at Baseline <=4"}}}
{"smiles": "COC1/C=C/OC2(C)Oc3c(C)c(O)c4c(O)c(c5c(nc6cc(C)ccn65)c4c3C2=O)NC(=O)/C(C)=C\\C=C\\C(C)C(O)C(C)C(O)C(C)C(OC(C)=O)C1C", "note": "[RFX, (2S,16Z,18E,20S,21S,22R,23R,24R,25S,26S,27S,28E)-5,6,21,23,25 Pentahydroxy-27-methoxy-2,4,11,16,20,22,24,26-octamethyl-2,7-(epoxypentadeca-(1,11,13)trienimino)benzofuro(4,5-e)pyrido(1,2,-a)benzimidazole-1,15(2H)-dione,25-acetate]", "values": [{"measurement": "Duration of effect (maintaining symptom relief) versus placebo", "setting": "550 mg BID 2 w responders, 12 week follow-up period", "result": "better chance of maintaining symptom relief"}, {"measurement": "Adequate relief of IBS related symptoms (SGA) compared to placebo", "setting": "[1]", "result": "statistically significant relief"}, {"measurement": "Adequate relief of IBS-related bloating (IBS-B) compared to placebo", "setting": "[1]", "result": "statistically significant relief"}, {"measurement": "Treatment effect (Bloating)", "setting": "[2]", "result": "−0.9", "unit": "%"}, {"measurement": "Treatment effect (IBS Sx)", "setting": "[2]", "result": 4.7, "unit": "%"}, {"measurement": "Treatment effect (Bloating)", "setting": "[3]", "result": 13.8, "unit": "%"}, {"measurement": "Treatment effect (IBS Sx)", "setting": "[3]", "result": 11.6, "unit": "%"}, {"measurement": "Adequate Relief of Bloating: Failure", "setting": "[4]", "result": "36 (67.9%) n (%)"}, {"measurement": "Adequate Relief of Bloating: Success", "setting": "[4]", "result": "17 (32.1%) n (%)"}, {"measurement": "Adequate Relief of IBS Symptoms: Failure", "setting": "[4]", "result": "32 (60.4%) n (%)"}, {"measurement": "Adequate Relief of IBS Symptoms: Success", "setting": "[4]", "result": "21 (39.6%) n (%)"}, {"measurement": "Adequate Relief of Bloating: Failure", "setting": "[5]", "result": "24 (57.1%) n (%)"}, {"measurement": "Adequate Relief of Bloating: Success", "setting": "[5]", "result": "18 (42.9%) n (%)"}, {"measurement": "Adequate Relief of IBS Symptoms: Failure", "setting": "[5]", "result": "23 (54.8%) n (%)"}, {"measurement": "Adequate Relief of IBS Symptoms: Success", "setting": "[5]", "result": "19 (45.2%) n (%)"}, {"measurement": "Adequate Relief of Bloating: Failure", "setting": "[6]", "result": "10 (55.6%) n (%)"}, {"measurement": "Adequate Relief of Bloating: Success", "setting": "[6]", "result": "8 (44.4%) n (%)"}, {"measurement": "Adequate Relief of IBS Symptoms: Failure", "setting": "[6]", "result": "11 (61.1%) n (%)"}, {"measurement": "Adequate Relief of IBS Symptoms: Success", "setting": "[6]", "result": "7 (38.9%) n (%)"}, {"measurement": "Adequate Relief of Bloating: Failure", "setting": "[7]", "result": "14 (58.3%) n (%)"}, {"measurement": "Adequate Relief of Bloating: Success", "setting": "[7]", "result": "10 (41.7%) n (%)"}, {"measurement": "Adequate Relief of IBS Symptoms: Failure", "setting": "[7]", "result": "12 (50.0%) n (%)"}, {"measurement": "Adequate Relief of IBS Symptoms: Success", "setting": "[7]", "result": "12 (50.0%) n (%)"}, {"measurement": "Adequate Relief of Bloating: Failure", "setting": "[8]", "result": "22 (59.5%) n (%)"}, {"measurement": "Adequate Relief of Bloating: Success", "setting": "[8]", "result": "15 (40.5%) n (%)"}, {"measurement": "Adequate Relief of IBS Symptoms: Failure", "setting": "[8]", "result": "21 (56.8%) n (%)"}, {"measurement": "Adequate Relief of IBS Symptoms: Success", "setting": "[8]", "result": "16 (43.2%) n (%)"}, {"measurement": "Adequate Relief of Bloating: Failure", "setting": "[9]", "result": "2 (40.0%) n (%)"}, {"measurement": "Adequate Relief of Bloating: Success", "setting": "[9]", "result": "3 (60.0%) n (%)"}, {"measurement": "Adequate Relief of IBS Symptoms: Failure", "setting": "[9]", "result": "2 (40.0%) n (%)"}, {"measurement": "Adequate Relief of IBS Symptoms: Success", "setting": "[9]", "result": "3 (60.0%) n (%)"}, {"measurement": "Adequate Relief of Bloating: Failure", "setting": "[10]", "result": "22 (59.5%) n (%)"}, {"measurement": "Adequate Relief of Bloating: Success", "setting": "[10]", "result": "15 (40.5%) n (%)"}, {"measurement": "Adequate Relief of IBS Symptoms: Failure", "setting": "[10]", "result": "21 (56.8%) n (%)"}, {"measurement": "Adequate Relief of IBS Symptoms: Success", "setting": "[10]", "result": "16 (43.2%) n (%)"}, {"measurement": "Adequate Relief of Bloating: Failure", "setting": "[11]", "result": "2 (40.0%) n (%)"}, {"measurement": "Adequate Relief of Bloating: Success", "setting": "[11]", "result": "3 (60.0%) n (%)"}, {"measurement": "Adequate Relief of IBS Symptoms: Failure", "setting": "[11]", "result": "2 (40.0%) n (%)"}, {"measurement": "Adequate Relief of IBS Symptoms: Success", "setting": "[11]", "result": "3 (60.0%) n (%)"}, {"measurement": "Adequate Relief of Bloating: Failure", "setting": "[12]", "result": "59 (62.1%) n (%)"}, {"measurement": "Adequate Relief of Bloating: Success", "setting": "[12]", "result": "36 (37.9%) n (%)"}, {"measurement": "Adequate Relief of IBS Symptoms: Failure", "setting": "[12]", "result": "49 (51.6%) n (%)"}, {"measurement": "Adequate Relief of IBS Symptoms: Success", "setting": "[12]", "result": "46 (48.4%) n (%)"}, {"measurement": "Adequate Relief of Bloating: Failure", "setting": "[13]", "result": "44 (45.8%) n (%)"}, {"measurement": "Adequate Relief of Bloating: Success", "setting": "[13]", "result": "52 (54.2%) n (%)"}, {"measurement": "Adequate Relief of IBS Symptoms: Failure", "setting": "[13]", "result": "42 (43.8%) n (%)"}, {"measurement": "Adequate Relief of IBS Symptoms: Success", "setting": "[13]", "result": "54 (56.3%) n (%)"}, {"measurement": "Adequate Relief of Bloating: Failure", "setting": "[14]", "result": "18 (40.9%) n (%)"}, {"measurement": "Adequate Relief of Bloating: Success", "setting": "[14]", "result": "26 (59.1%) n (%)"}, {"measurement": "Adequate Relief of IBS Symptoms: Failure", "setting": "[14]", "result": "20 (45.5%) n (%)"}, {"measurement": "Adequate Relief of IBS Symptoms: Success", "setting": "[14]", "result": "24 (54.5%) n (%)"}, {"measurement": "Adequate Relief of Bloating: Failure", "setting": "[15]", "result": "26 (50.0%) n (%)"}, {"measurement": "Adequate Relief of Bloating: Success", "setting": "[15]", "result": "26 (50.0%) n (%)"}, {"measurement": "Adequate Relief of IBS Symptoms: Failure", "setting": "[15]", "result": "22 (42.3%) n (%)"}, {"measurement": "Adequate Relief of IBS Symptoms: Success", "setting": "[15]", "result": "30 (57.7%) n (%)"}, {"measurement": "Adequate Relief of Bloating: Failure", "setting": "[16]", "result": "38 (45.8%) n (%)"}, {"measurement": "Adequate Relief of Bloating: Success", "setting": "[16]", "result": "45 (54.2%) n (%)"}, {"measurement": "Adequate Relief of IBS Symptoms: Failure", "setting": "[16]", "result": "37 (44.6%) n (%)"}, {"measurement": "Adequate Relief of IBS Symptoms: Success", "setting": "[16]", "result": "46 (55.4%) n (%)"}, {"measurement": "Adequate Relief of Bloating: Failure", "setting": "[17]", "result": "6 (46.2%) n (%)"}, {"measurement": "Adequate Relief of Bloating: Success", "setting": "[17]", "result": "7 (53.8%) n (%)"}, {"measurement": "Adequate Relief of IBS Symptoms: Failure", "setting": "[17]", "result": "5 (38.5%) n (%)"}, {"measurement": "Adequate Relief of IBS Symptoms: Success", "setting": "[17]", "result": "8 (61.5%) n (%)"}, {"measurement": "Adequate Relief of Bloating: Failure", "setting": "[18]", "result": "36 (45.0%) n (%)"}, {"measurement": "Adequate Relief of Bloating: Success", "setting": "[18]", "result": "44 (55.0%) n (%)"}, {"measurement": "Adequate Relief of IBS Symptoms: Failure", "setting": "[18]", "result": "34 (42.5%) n (%)"}, {"measurement": "Adequate Relief of IBS Symptoms: Success", "setting": "[18]", "result": "46 (57.5%) n (%)"}, {"measurement": "Adequate Relief of Bloating: Failure", "setting": "RFX 550 2 w (550 mg BID 14 days), had screening colonoscopy, Average Bloating Discomfort Score at Baseline >4", "result": "8 (50.0%) n (%)"}]}
